Read-outs that look alike come from different tables or passages of the source.
Legend:
KB tumor-bearing mice = conditions: 45 min p.i., n = 4, cited from earlier work
[1] = reversed-phase HPLC; cited from earlier work
[2] = Relative lipophilicity (capacity factor k’) by reversed-phase HPLC; type: physicochemical; conditions: methanol-phosphoric acid buffer eluent, pH 2
Experimental: The relative lipophilicity of 6 was determined as capacity factor k’ (k’ = (tretention - tsolvent) / tsolvent) by reversed-phase HPLC using a methanol-phosphoric acid buffer eluent system at pH 2. […] This method has already been described elsewhere. The capacity factor k’ (k’ = (tretention - tsolvent) / tsolvent) was determined using reversed-phase HPLC and enables different (radio)folates to be compared based on their polarity. The values determined can be used to give hint to the in vivo behavior in terms of the degree of hepatobiliary excretion by comparison with literature examples.

folate receptor = target: T1, folate receptor (Homo sapiens, UniProt P15328); assay: Displacement assay with [^3H]folic acid on FR-positive human KB cells; type: binding
T1 construct: using [^3H]folic acid and human KB cells in cell suspension; endogenous in cells; host or cells: human KB cells
Experimental: FR-positive human KB cells were kept under folate-deficient conditions to adjust the folate concentration levels to that of the human serum.
Figure 1 Displacement assay. […] Experiments were conducted in triplicate (n = 3).

T1 sequence (P15328 25-257): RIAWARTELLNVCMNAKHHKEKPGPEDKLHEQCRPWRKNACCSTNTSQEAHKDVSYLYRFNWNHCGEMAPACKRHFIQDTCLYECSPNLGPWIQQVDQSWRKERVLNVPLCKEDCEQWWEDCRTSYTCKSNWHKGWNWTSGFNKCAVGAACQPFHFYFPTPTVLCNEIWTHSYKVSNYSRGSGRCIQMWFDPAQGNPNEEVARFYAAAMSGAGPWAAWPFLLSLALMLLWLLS

SMILES	Ratio of tumor to Kidney (KB tumor-bearing mice)	Ratio of tumor to Liver (KB tumor-bearing mice)	%ID/g Blood (KB tumor-bearing mice; Blood) [%ID/g]	%ID/g Bone (KB tumor-bearing mice; Bone) [%ID/g]	%ID/g Feces (KB tumor-bearing mice; Feces) [%ID/g]	%ID/g Gall bladder (KB tumor-bearing mice; Gall bladder) [%ID/g]	%ID/g Heart (KB tumor-bearing mice; Heart) [%ID/g]	%ID/g Intestines (empty) (KB tumor-bearing mice; Intestines (empty)) [%ID/g]	%ID/g Tumor (KB tumor-bearing mice; KB tumor) [%ID/g]	%ID/g Kidneys (KB tumor-bearing mice; Kidneys) [%ID/g]	%ID/g Liver (KB tumor-bearing mice; Liver) [%ID/g]	%ID/g Lung (KB tumor-bearing mice; Lung) [%ID/g]	%ID/g Spleen (KB tumor-bearing mice; Spleen) [%ID/g]	%ID/g Stomach (empty) (KB tumor-bearing mice; Stomach (empty)) [%ID/g]	capacity factor k’ [1]	capacity factor k’ [2]	IC50 (folate receptor) [nM]	Ki (folate receptor) [nM]
Nc1nc2ncc(CNc3ccc(C(=O)NC(CCC(=O)NCCCCn4cc(CCCC[18F])nn4)C(=O)O)cc3)nc2c(=O)[nH]1 (stereo not drawn) [^18 F-click folate]	0.19 ± 1.38	1.18 ± 0.69	0.13 ± 0.01	0.13 ± 0.01	56.00 ± 27.64	667.4 ± 530.1	0.90 ± 0.22	19.59 ± 5.26	3.13 ± 0.83	16.53 ± 2.22	1.71 ± 0.14	0.85 ± 0.04	0.33 ± 0.12	2.50 ± 0.6	2.28	–	–	–
Nc1nc2ncc(CNc3ccc(C(=O)N[C@@H](CCC(=O)NCCOCCOCCOCCn4cc(COCCOCCOCCF)nn4)C(=O)O)cc3)nc2c(=O)[nH]1 [Compound 6]	–	–	–	–	–	–	–	–	–	–	–	–	–	–	–	1.12	3.1	1.6

From publication PMC3849131, “^18 F-click labeling and preclinical evaluation of a new ^18 F-folate for PET imaging” (EJNMMI Research, 2013)
